# Source: patent publication US8906848B2, “Aureobasidin derivatives and methods of synthesis” (priority 2011, dated 2014)
# Like-named read-outs stand apart in the source and are kept apart here.
# How the values were obtained:
# [1] = test system: Candida albicans 2000 (ATCC10231); assay: MIC, antifungal spectrum (Table 3); format: cell-based
# Experimental: (§1) The activities of several exemplary compounds of the present invention were assayed according to the CLSI standard M38-A2 titled “Reference Method for Broth Dilution Antifungal Susceptibility Testing of Filamentous Fungi”. However, the RPMI-1640 broth is substituted for a YPD medium formulated according to the following steps: […]
# (§2) 1. Dissolve 10 g of BactoYeast extract in 500 ml water
# (§3) 2. Dissolve 20 g of BactoPeptone in the above solution
# (§4) 3. Dissolve 20 g Dextrose in the above solution* *Ordinary table sugar (sucrose) substituted for dextrose routinely.
# (§5) 4. q.s. to 1000 ml with water
# [2] = test system: Aspergillus candidus 450 (ATCC13686); assay: MIC, antifungal spectrum (Table 3); format: cell-based
# Experimental: as §1, §2, §3, §4, §5
# [3] = test system: Aspergillus flavus 626 (ATCC64025); assay: MIC, antifungal spectrum (Table 3); format: cell-based
# Experimental: as §1, §2, §3, §4, §5
# [4] = test system: Aspergillus flavus 122 (ATCC22546); assay: MIC, antifungal spectrum (Table 3); format: cell-based
# Experimental: as §1, §2, §3, §4, §5
# [5] = test system: Candida parapsilosis 0630 (ATCC90018); assay: MIC, antifungal spectrum (Table 3); format: cell-based; conditions: Lodderomyces parapsilosis
# Experimental: as §1, §2, §3, §4, §5
# [6] = test system: Aspergillus fumigatus 891 (ATCC204305); assay: MIC, antifungal spectrum (Table 3); format: cell-based
# Experimental: as §1, §2, §3, §4, §5
# [7] = test system: Saccharomyces cerevisiae 0639 (ATCC7754); assay: MIC, antifungal spectrum (Table 3); format: cell-based
# Experimental: as §1, §2, §3, §4, §5
# [8] = test system: Candida parapsilosis 2323 (ATCC22019); assay: MIC, antifungal spectrum (Table 3); format: cell-based; conditions: Lodderomyces parapsilosis
# Experimental: as §1, §2, §3, §4, §5
# [9] = test system: Aspergillus niger 624 (ATCC16888); assay: MIC, antifungal spectrum (Table 3); format: cell-based
# Experimental: as §1, §2, §3, §4, §5
# [10] = test system: Candida glabrata 635 (ATCC90030); assay: MIC, antifungal spectrum (Table 3); format: cell-based; conditions: Nakaseomyces glabratus
# Experimental: as §1, §2, §3, §4, §5
# [11] = test system: Candida albicans 633 (ATCC90029); assay: MIC, antifungal spectrum (Table 3); format: cell-based
# Experimental: as §1, §2, §3, §4, §5
# [12] = test system: Candida albicans 104 (ATCC90028); assay: MIC, antifungal spectrum (Table 3); format: cell-based
# Experimental: as §1, §2, §3, §4, §5
# [13] = test system: Issatchenkia orientalis 2322 (ATCC6258); assay: MIC, antifungal spectrum (Table 3); format: cell-based; conditions: Pichia kudriavzevii
# Experimental: as §1, §2, §3, §4, §5
# [14] = test system: Candida lusitaniae 631 (ATCC66035); assay: MIC, antifungal spectrum (Table 3); format: cell-based; conditions: Clavispora lusitaniae
# Experimental: as §1, §2, §3, §4, §5
# [15] = test system: Candida albicans 4782 (ATCC24433); assay: MIC, antifungal spectrum (Table 3); format: cell-based
# Experimental: as §1, §2, §3, §4, §5
# [16] = test system: Candida guilliermondii 628 (ATCC34134); assay: MIC, antifungal spectrum (Table 3); format: cell-based; conditions: Meyerozyma guilliermondii
# Experimental: as §1, §2, §3, §4, §5
# [17] = test system: Rhizopus oryzae 0890 (ATCC11886); assay: MIC, antifungal spectrum (Table 3); format: cell-based; conditions: Rhizopus arrhizus
# Experimental: as §1, §2, §3, §4, §5
# [18] = test system: Aspergillus flavus 4787 (ATCC204304); assay: MIC, antifungal spectrum (Table 3); format: cell-based
# Experimental: as §1, §2, §3, §4, §5
# [19] = test system: Trychophyton mentagrophytes 5278 (ATCC MYA-4439); assay: MIC, antifungal spectrum (Table 3); format: cell-based; conditions: at 96 hrs, read-out: MIC
# Experimental: as §1, §2, §3, §4, §5
# [20] = test system: Aspergillus clavatus 638 (ATCC10058); assay: MIC, antifungal spectrum (Table 3); format: cell-based
# Experimental: as §1, §2, §3, §4, §5
# [21] = test system: Candida krusei 629 (ATCC14243); assay: MIC, antifungal spectrum (Table 3); format: cell-based; conditions: Pichia kudriavzevii
# Experimental: as §1, §2, §3, §4, §5
# [22] = test system: Fusarium oxysporum 0893 (ATCC48112); assay: MIC, antifungal spectrum (Table 3); format: cell-based; conditions: at 96 hr, read-out: MIC
# Experimental: as §1, §2, §3, §4, §5
# [23] = test system: Candida albicans 2486 (ATCC204276); assay: MIC, antifungal spectrum (Table 3); format: cell-based
# Experimental: as §1, §2, §3, §4, §5
# [24] = test system: Emericella nidulans 637 (ATCC96921); assay: MIC, antifungal spectrum (Table 3); format: cell-based; conditions: Aspergillus nidulans
# Experimental: as §1, §2, §3, §4, §5
# [25] = test system: Trychophyton mentagrophytes 640 (ATCC 28185); assay: MIC, antifungal spectrum (Table 3); format: cell-based
# Experimental: as §1, §2, §3, §4, §5
# [26] = test system: Aspergillus fumigatus 5280 (ATCC MYA-3626); assay: MIC, antifungal spectrum (Table 3); format: cell-based
# Experimental: as §1, §2, §3, §4, §5
# [27] = test system: Sporothrix schenkii 892 (ATCC14284); assay: MIC, antifungal spectrum (Table 3); format: cell-based; conditions: at 96 hrs, read-out: MIC
# Experimental: as §1, §2, §3, §4, §5
# [28] = test system: Candida albicans 2487 (ATCC MYA-2732); assay: MIC, antifungal spectrum (Table 3); format: cell-based
# Experimental: as §1, §2, §3, §4, §5
# [29] = test system: Trychophyton rubrum 5279 (ATCC MYA-4438); assay: MIC, antifungal spectrum (Table 3); format: cell-based; conditions: at 72 hrs, read-out: MIC
# Experimental: as §1, §2, §3, §4, §5
# [30] = test system: Candida tropicalis 636 (ATCC90874); assay: MIC, antifungal spectrum (Table 3); format: cell-based
# Experimental: as §1, §2, §3, §4, §5
# [31] = test system: Candida tropicalis 4783 (ATCC750); assay: MIC, antifungal spectrum (Table 3); format: cell-based
# Experimental: as §1, §2, §3, §4, §5
# [32] = test system: Aspergillus ochraceus 625 (ATCC96919); assay: MIC, antifungal spectrum (Table 3); format: cell-based
# Experimental: as §1, §2, §3, §4, §5
# [33] = test system: Aspergillus fumigatus 5280 (ATCC MYA-3626); conditions: at 48 hrs; cited from earlier work
# [34] = test system: Candida parapsilosis 2323 (ATCC22019); conditions: cited from earlier work
compound,measurement,setting,value
"C[C@@H]1[C@H](O)[C@@H](C)/C=C/C=C/C=C/C=C/C=C/C=C/C=C/[C@H](O[C@@H]2O[C@H](C)[C@@H](O)[C@H](N)[C@@H]2O)C[C@@H]2O[C@](O)(C[C@@H](O)C[C@@H](O)[C@H](O)CC[C@@H](O)C[C@@H](O)CC(=O)O[C@H]1C)C[C@H](O)[C@H]2C(=O)O [Amphotericin, Amphotericin B]",MIC,[1]; 48 hr reading,0.3 µg/mL
same,MIC,[1]; 72 hr reading,0.6 µg/mL
same,MIC,[2]; 48 hr reading,0.03 µg/mL
same,MIC,[2]; 72 hr reading,0.06 µg/mL
same,MIC,[3]; 48 hr reading,0.5 µg/mL
same,MIC,[3]; 72 hr reading,0.5 µg/mL
same,MIC,[4]; 48 hr reading,0.25 µg/mL
same,MIC,[4]; 72 hr reading,0.25 µg/mL
same,MIC,[5]; 48 hr reading,0.06 µg/mL
same,MIC,[5]; 72 hr reading,0.125 µg/mL
same,MIC,[6]; 48 hr reading,0.25 µg/mL
same,MIC,[6]; 72 hr reading,1 µg/mL
same,MIC,[7]; 48 hr reading,0.06 µg/mL
same,MIC,[7]; 72 hr reading,0.06 µg/mL
same,MIC,"[8]; ATCC22019, 48 h, Candida parapsilosis 2323 (ATCC22019) no Tween, 48 hr reading",0.25 µg/mL
same,MIC,"[8]; ATCC22019, 48 h, Candida parapsilosis 2323 (ATCC22019), 48 hr reading",0.125 µg/mL
same,MIC,"[8]; ATCC22019, 72 h, Candida parapsilosis 2323 (ATCC22019) no Tween, 72 hr reading",1 µg/mL
same,MIC,"[8]; ATCC22019, 72 h, Candida parapsilosis 2323 (ATCC22019), 72 hr reading",0.125 µg/mL
same,MIC,[9]; 48 hr reading,0.03 µg/mL
same,MIC,[9]; 72 hr reading,0.125 µg/mL
same,MIC,[10]; 48 hr reading,0.03 µg/mL
same,MIC,[10]; 72 hr reading,0.125 µg/mL
same,MIC,[11]; 48 hr reading,0.3 µg/mL
same,MIC,[11]; 72 hr reading,0.6 µg/mL
same,MIC,[12]; 48 hr reading,0.3 µg/mL
same,MIC,[12]; 72 hr reading,0.6 µg/mL
same,MIC,[13]; 48 hr reading,0.125 µg/mL
same,MIC,[13]; 72 hr reading,0.125 µg/mL
same,MIC,[14]; 48 hr reading,0.015 µg/mL
same,MIC,[14]; 72 hr reading,0.03 µg/mL
same,MIC,[15]; 48 hr reading,0.3 µg/mL
same,MIC,[15]; 72 hr reading,0.6 µg/mL
same,MIC,[16]; 48 hr reading,0.008 µg/mL
same,MIC,[16]; 72 hr reading,0.015 µg/mL
same,MIC,[17]; 48 hr reading,0.03 µg/mL
same,MIC,[17]; 72 hr reading,0.03 µg/mL
same,MIC,[18]; 48 hr reading,0.25 µg/mL
same,MIC,[18]; 72 hr reading,0.25 µg/mL
same,MIC,[19],0.06 µg/mL
same,MIC,[20]; 48 hr reading,≤ 0.004 µg/mL
same,MIC,[20]; 72 hr reading,0.015 µg/mL
same,MIC,[21]; 48 hr reading,0.125 µg/mL
same,MIC,[21]; 72 hr reading,0.125 µg/mL
same,MIC,[22],1 µg/mL
same,MIC,[23]; 48 hr reading,0.06 µg/mL
same,MIC,[23]; 72 hr reading,0.06 µg/mL
same,MIC,[24]; 48 hr reading,1 µg/mL
same,MIC,[24]; 72 hr reading,2 µg/mL
same,MIC,[25]; 48 hr reading,0.06 µg/mL
same,MIC,[25]; 72 hr reading,0.25 µg/mL
same,MIC,"[26]; 48 h, Aspergillus fumigatus 5280 (ATCC MYA-3626) no Tween, 48 hr reading",1 µg/mL
same,MIC,"[26]; 48 h, Aspergillus fumigatus 5280 (ATCC MYA-3626), 48 hr reading",0.25 µg/mL
same,MIC,"[26]; 72 h, Aspergillus fumigatus 5280 (ATCC MYA-3626) no Tween, 72 hr reading",2 µg/mL
same,MIC,"[26]; 72 h, Aspergillus fumigatus 5280 (ATCC MYA-3626), 72 hr reading",0.5 µg/mL
same,MIC,[27],0.5 µg/mL
same,MIC,[28]; 48 hr reading,0.06 µg/mL
same,MIC,[28]; 72 hr reading,0.06 µg/mL
same,MIC,[29],0.03 µg/mL
same,MIC,[30]; 48 hr reading,0.06 µg/mL
same,MIC,[30]; 72 hr reading,0.125 µg/mL
same,MIC,[31]; 48 hr reading,0.06 µg/mL
same,MIC,[31]; 72 hr reading,0.125 µg/mL
same,MIC,[32]; 48 hr reading,0.25 µg/mL
same,MIC,[32]; 72 hr reading,0.5 µg/mL
same,Amphotericin B CLSI QC Range for A. Fumigatus ATCC MYA-3626,[33],0.5-4 at 48 hrs μg/ml
same,Amphotericin B CLSI QC Range for C. parapsilosis,[34]; 24 hrs,0.25-2 (24 hrs) μg/ml
same,Amphotericin B CLSI QC Range for C. parapsilosis,[34]; 48 hrs,0.5-4 (48 hrs) μg/ml
